Legend:
[1] = in humans following LPS treatment; correlated with changes in TNF and IL-6; cited from earlier work
CYP3A4 = conditions: co-cultures of hepatocyte and Kupffer cells, three livers, treated daily for 72 hours; testosterone 6β-hydroxylation by LC/MS/MS
CYP1A2 = conditions: co-cultures of hepatocyte and Kupffer cells, three livers, treated daily for 72 hours; phenacetin O-dealkylation by LC/MS/MS

lipopolysaccharides [LPS]
antipyrine (AP) clearance [1]: changes
CYP3A4 activity (CYP3A4): decrease
CYP1A2 activity (CYP1A2): decrease

Reference: patent publication US10648968B2, “In vitro test system to evaluate xenobiotics as immune-modulators of drug transport and metabolism in human hepatocytes” (XenoTech, LLC, priority 2011, dated 2020)
